We go through six compounds from patent US5032593A, “Method of treating bronchoconstriction with 1,3-unsymmetrical straight chain alkyl-substituted 8-phenylxanthines” (priority 1988, dated 1991).

As usually defined, the Ki is the dissociation constant of the complex between target and ligand, obtained from inhibition or displacement. The term ED50 denotes the midpoint of the dose-response relation.

Like-named read-outs stand apart in the source and are kept apart here.

One data set is described as follows: Acute toxicity in mice. Type of data set: in vivo, mouse. The settings on record: for Acute Toxicity, Approximate lethal dose: i.p.'; for Acute Toxicity (comments): animals showing the side effect.
Data set [1] is described as follows: Emetic effects in ferrets. The format is in vivo, ferret. The settings on record: 100 mg/kg. As for the experimental part: Male ferrets, 12-15 weeks old, were fasted overnight prior to experimentation. Animals were given intraperitoneal injections of 100 mg/kg of compound or were dosed with vehicle for controls. Animals were then placed in cages with feed and water and observed for signs of emesis.

The subject of data set [2] is antigen-induced bronchoconstriction. The experiment in a line: Prevention of antigen-induced bronchoconstriction in ovalbumin-sensitized guinea pigs. The format is in vivo, guinea pig. The settings on record: 10 mg/kg, i.v., peak airway pressure increase as percent of vehicle animals. An excerpt: Prevention of antigen-induced bronchoconstriction Male Hartley guinea pigs were given two intraperitoneal injections each containing 50 mcg ovalbumin in a 2:1 emulsion of Freund's complete adjuvant and sterile saline, for a total of 100 mcg ovalbumin per animal. At least three weeks post sensitization injection, sensitized guinea pigs (now approximately 400-600 g) were anesthetized with an intraperitoneal injection of urethane. The carotid artery, jugular vein and the trachea were cannulated. […] Airway pressure was measured and aortic blood pressure was monitored. Body temperature was maintained.
Following a stabilization period of approximately ten minutes, drug in vehicle or vehicle alone was administered intravenously in a volume of 1 ml. All drugs were tested at a dose of 10 mg/kg. One minute post injection, ovalbumin (10 mg/ml) was aerosolized into the airway via a DeVilbiss® ultrasonic nebulizer for a thirty minute period. Peak airway pressure attained during this thirty minute period was measured.

In another data set the target is T1, A2 - Adenosine receptor (Rattus norvegicus, UniProt P30543).
T1 construct: rat striatum homogenate; from tissue; host or cells: rat striatum homogenate
T1 sequence (P30543 whole entry): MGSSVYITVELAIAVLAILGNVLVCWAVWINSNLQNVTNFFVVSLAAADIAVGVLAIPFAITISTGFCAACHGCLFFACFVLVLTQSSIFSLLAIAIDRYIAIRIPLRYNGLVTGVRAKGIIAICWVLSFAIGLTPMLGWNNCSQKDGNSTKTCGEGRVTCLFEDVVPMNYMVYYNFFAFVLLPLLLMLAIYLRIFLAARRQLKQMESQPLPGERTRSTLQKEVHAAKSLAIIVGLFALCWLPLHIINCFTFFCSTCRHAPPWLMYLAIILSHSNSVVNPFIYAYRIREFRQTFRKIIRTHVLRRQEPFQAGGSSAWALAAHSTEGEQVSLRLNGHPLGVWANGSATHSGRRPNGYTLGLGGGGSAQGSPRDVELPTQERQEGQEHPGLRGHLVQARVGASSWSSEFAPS
The experiment in a line: Adenosine receptor binding, [3H]NECA, rat striatum homogenate. The settings on record: read-out: A2 - Adenosine receptor binding, Ki ± s.e.m. How it is done: A similar procedure utilizing rat striatum homogenate and [^3 H]NECA as ligand was employed to measure A2 -adenosine receptor binding.
The inhibition constants (Ki values) were calculated using EBDA, a log-logit iterative curve fitting program [McPhearson, Comput. Prog.

Data set [3] concerns histamine-induced bronchoconstriction. The experiment in a line: Reversal of histamine-induced bronchoconstriction in anesthetized guinea pigs. The settings on record: for ED50: Cavia porcellus, iv, read-out: Reversal of histamine-induced bronchoconstriction, guinea pigs, ED50 ± s.e.m. (N); for Reversal of histamine-induced bronchoconstriction, maximum effect, % (N) ± s.e.m.: maximum percent reversal, at highest dose. Type of data set: in vivo, guinea pig. As for the experimental part: Adult male guinea pigs, weighing […], were anesthetized with an intraperitoneal injection of urethane (1.5 gm/kg). After a midline neck incision, the carotid artery and jugular vein were cannulated using polyethylene tubing. The trachea was cannulated using a 15 gauge Leuer Stub. Animals were ventilated at a constant rate and volume (55 breaths per minute and 1 ml per […] body weight) using a Harvard Apparatus small animal respirator. Airway pressure was measured from a side port of the tracheal cannula, using a Statham pressure transducer. Airway pressure and blood pressure were recorded using a Gould physiograph. Body temperature was maintained with a Narco temperature control unit.
Baseline airway and blood pressures were recorded for ten minutes. Aerosolized histamine (0.01%) was then delivered to the airways via a DeVilbiss® ultrasonic nebulizer, inserted in-line between the respirator and the animal. After the histamine-induced bronchoconstriction reached a plateau, as evidenced by an increased airway pressure, a dose-response curve was determined for each compound. […] The maximum effect of each compound was determined from the reversal of bronchoconstriction, as the percent decrease in the bronchoconstrictor response, after administration of the highest dose of that compound.
The ED50 values and maximum effect (%) were calculated using SAS and PROBIT computer analysis. […] The maximum effect is the maximum percent reversal of histamine-induced bronchoconstriction produced by the test compound.

Data set [4] can be described thus: Cardiovascular effects (heart rate, blood pressure) in anesthetized guinea pigs. Type of data set: in vivo, guinea pig. As for the experimental part: Aortic blood pressure was recorded from a pressure transducer and the signal was integrated to give a heart rate signal.
Each animal received a single intravenous injection of one compound. […] A group of control animals received injections of vehicle only. Changes in heart rate and blood pressure from pre-injection baseline values produced by drugs or vehicle were compared.

Data set [5] in a line: Solubility at the dose intended for the cardiovascular test. The format is physicochemical. The settings on record: dose for guinea pig i.v. cardiovascular test.
A further data set concerns the target T2, A1 - Adenosine receptor (Rattus norvegicus, UniProt P25099).
T2 construct: rat cortical tissue was homogenized in ice cold 50 mM Tris HCl buffer; from tissue; host or cells: rat cerebral cortex membranes
T2 sequence (P25099 1-326): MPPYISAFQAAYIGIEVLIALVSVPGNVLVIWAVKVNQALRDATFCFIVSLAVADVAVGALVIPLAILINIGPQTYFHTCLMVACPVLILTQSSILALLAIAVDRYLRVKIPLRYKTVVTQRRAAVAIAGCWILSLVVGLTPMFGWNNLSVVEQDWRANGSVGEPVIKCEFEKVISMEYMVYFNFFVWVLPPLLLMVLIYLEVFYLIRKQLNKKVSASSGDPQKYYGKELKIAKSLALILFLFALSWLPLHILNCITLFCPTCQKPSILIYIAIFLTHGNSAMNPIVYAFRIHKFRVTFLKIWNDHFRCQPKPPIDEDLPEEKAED
The experiment in a line: Adenosine receptor binding, [3H]cyclohexyladenosine, rat cortical membranes. The settings on record: [3H]CHA, 23° C., pH 7.4, read-out: A1 - Adenosine receptor binding, Ki ± s.e.m. As for the experimental part:
Briefly, rat cortical tissue was homogenized in ice cold 50 mM Tris HCl buffer (pH 7.4) using a Brinkman Polytron®. The homogenate was centrifuged at 48,000×g for 10 minutes and the resulting tissue pellet was suspended in fresh cold buffer to yield a tissue concentration of 10 mg (wet weight)/ml. […] Following this incubation, the tissue suspension was centrifuged as before and the resulting pellet was suspended in fresh buffer at a concentration of 7-10 mg tissue (wet weight)/ml. […] Dose-inhibition curves were generated with 10-12 concentrations of the test compound using triplicate incubations. The inhibition constants (Ki values) were calculated using EBDA, a log-logit iterative curve fitting program [McPhearson, Comput. Prog.

Another data set relates to phosphodiesterase. The settings on record: cited from earlier work.
Where [6] appears, read: guinea pigs, i.v., dose required to reverse the histamine response by 50%.
Setting [7] is: guinea pigs, i.v., 2 × histamine-reversal ED50.

For the compound `Cn1c(=O)c2[nH]c(-c3ccccc3)nc2n(C)c1=O` [1,3-Dimethyl-8-phenylxanthine], in “Acute toxicity in mice” (N 3, route head 'p.o.), the “Acute Toxicity, Approximate lethal dose” value was below 250 mg/kg. For the same compound, the “Acute Toxicity (comments)” value in the data set “Acute toxicity in mice” is given as “sedation 3/3”. Further, the “Emetic effects, episodes/responder ± s.e.” value in data set [1] (ferrets, i.p., 1 hour) amounted to 0 episodes/responder. Also, the “Emetic effects, no. responding / no. tested in 1 hour” value in [1] (in vivo, ip) is reported as 0/4. In addition, the “Prevention of antigen-induced bronchoconstriction, % control” value (from here on “Prevention … % control”) in data set [2] worked out at 71.7 ± 1.6 % control. In addition, the Ki on A2 - Adenosine receptor is 644 ± 144 nM. Besides, the ED50 in [3] is above 50 mg/kg. The “Reversal of histamine-induced bronchoconstriction, maximum effect, % (N) ± s.e.m.” value (“Reversal … % (N) ± s.e.m.” below) in [3] (guinea pigs, i.v.) was 22.0 ± 3.9%. Further, in data set [4] (guinea pig, in vivo, iv), the “% Basal blood pressure (mm Hg)” value is listed as 94 ± 22% and the “% Basal heart rate (N)” value is recorded as 102 ± 9%.

Regarding `CCCn1c(=O)c2[nH]c(-c3ccccc3)nc2n(CCC)c1=O` [1,3-Dipropyl-8-phenylxanthine], in the data set “Acute toxicity in mice” (N 3, route head 'p.o.), the “Acute Toxicity, Approximate lethal dose” value was above 250 mg/kg. In data set [5], the “solubility at 2 × ED50” value is given as “insoluble”. Also, the “Prevention … % control” value in data set [2] is 98.1 ± 12.4 % control. Besides, the Ki at A2 - Adenosine receptor turned out to be 116 ± 100 nM; on A1 - Adenosine receptor it was 2.75 ± 0.29 nM. Moreover, the ED50 in data set [3] (setting [6]) is above 50 mg/kg. For the same compound, the “Reversal … % (N) ± s.e.m.” value in data set [3] (guinea pigs, i.v.) was found to be 33.8 ± 8.5%.

`CCCn1c(=O)n(C)c(=O)c2[nH]c(-c3ccccc3)nc21` [1-Methyl-3-propyl-8-phenylxanthine, 1-Methyl-3-n-propyl-8-phenylxanthine]: the “Acute Toxicity, Approximate lethal dose” value in the data set “Acute toxicity in mice” (N 3, route head 'p.o.) is above 250 mg/kg. The “Prevention … % control” value in [2] is on record as 106.5 ± 9.7 % control. The Ki at A2 - Adenosine receptor was determined as 93 ± 10.2 nM; on A1 - Adenosine receptor it was 6.3 ± 0.17 nM. Moreover, the ED50 in [3] (setting [6]) was 16.9 ± 2 mg/kg. Further, the “Reversal … % (N) ± s.e.m.” value in data set [3] (guinea pigs, i.v.) was determined as 56.3 ± 3.2%. Also, the “% Basal blood pressure (mm Hg)” value in data set [4] (setting [7]) was found to be 86 ± 10%. Also, the “% Basal heart rate (N)” value in data set [4] (setting [7]) is recorded as 104 ± 4%.

As for `CCCn1c(=O)c2[nH]c(-c3ccccc3)nc2n(C)c1=O` [3-Methyl-1-propyl-8-phenylxanthine, 3-Methyl-1-n-propyl-8-phenylxanthine], the “Acute Toxicity, Approximate lethal dose” value in the data set “Acute toxicity in mice” (N 3, route head 'p.o.) is above 500 mg/kg. Moreover, in “Acute toxicity in mice”, the “Acute Toxicity (comments)” value is “sedation 6/6”. In addition, the “Acute Toxicity, Approximate lethal dose” value in the data set “Acute toxicity in mice” (second printed line of values, N 6, route head 'p.o.) was 250 to 500 mg/kg. For the same compound, in data set [1] (ferrets, i.p., 1 hour), the “Emetic effects, episodes/responder ± s.e.” value is 2 episodes/responder and the “Emetic effects, no. responding / no. tested in 1 hour” value is 2/8. In data set [2], the “Prevention … % control” value turned out to be 36.5 ± 2.0 % control. Further, the Ki on A2 - Adenosine receptor amounted to 553 ± 55.7 nM. Further, the ED50 in [3] (setting [6]) came to 2.1 ± 0.4 mg/kg. The “Reversal … % (N) ± s.e.m.” value in [3] (guinea pigs, i.v.) was 79.0 ± 3.4%. For the same compound, in data set [4] (setting [7]), the “% Basal blood pressure (mm Hg)” value amounted to 134% and the “% Basal heart rate (N)” value was determined as 100 ± 3%.

As to `CC(C)Cn1c(=O)n(C)c(=O)c2[nH]cnc21` [IBMX, 3-isobutyl-1-methylxanthine], in the data set with phosphodiesterase, the inhibition of phosphodiesterase entry is reported as “potent inhibitors of phosphodiesterase”.

As to `Cn1c(=O)c2[nH]cnc2n(C)c1=O` [Theophylline], the “Acute Toxicity (comments)” value in the data set “Acute toxicity in mice” is listed as “seizures 6/6”. For the same compound, in data set [1] (ferrets, i.p., 1 hour), the “Emetic effects, episodes/responder ± s.e.” value was found to be 10.7 ± 3.7 episodes/responder and the “Emetic effects, no. responding / no. tested in 1 hour” value was 7/8. In addition, the ED50 in [3] came to 35.1 ± 5.3 mg/kg. Also, in [3] (guinea pigs, i.v.), the “Reversal … % (N) ± s.e.m.” value is on record as 72.8 ± 6.6%. Moreover, in data set [4] (setting [7]), the “% Basal blood pressure (mm Hg)” value is 66 ± 8% and the “% Basal heart rate (N)” value is given as 132 ± 4%.
